We go through six molecules from patent publication US7687508B2, “Cyclic derivatives as modulators of chemokine receptor activity” (Bristol-Myers Squibb Company, priority 2006, dated 2010).

Data set [1] deals with T1, hERG (Homo sapiens, UniProt Q12809).
T1 construct: expressed in transfected cells
The experiment in a line: hERG patch clamp (whole-cell, HEK-293). The class given is cell-based. Conditions: for inhibition at 30000 nM: pH 7.4, 30,000 nM; for inhibition at 10000 nM: pH 7.4, 10,000 nM.

Data set [2] can be described thus: Single-dose pharmacokinetics in monkeys. The class given is in vivo. Particulars: male, cynomolgus monkey, plasma, dose per compound (mg/kg); for clearance: IV; for AUC: PO; for bioavailability: oral bioavailability. The source says:
(1500-2000×g) to obtain plasma.

Data set [3] can be described thus: Parallel Artificial Membrane Permeability Assay (PAMPA). Conditions: apical and basolateral pH 7.4. It counts as in vitro ADME. How it is done: All experiments are conducted in triplicate determinations.
The target in data set [4] is T2, human CCR2 (Homo sapiens, UniProt P41597).
T2 sequence (P41597 1-360 isoform P41597-2): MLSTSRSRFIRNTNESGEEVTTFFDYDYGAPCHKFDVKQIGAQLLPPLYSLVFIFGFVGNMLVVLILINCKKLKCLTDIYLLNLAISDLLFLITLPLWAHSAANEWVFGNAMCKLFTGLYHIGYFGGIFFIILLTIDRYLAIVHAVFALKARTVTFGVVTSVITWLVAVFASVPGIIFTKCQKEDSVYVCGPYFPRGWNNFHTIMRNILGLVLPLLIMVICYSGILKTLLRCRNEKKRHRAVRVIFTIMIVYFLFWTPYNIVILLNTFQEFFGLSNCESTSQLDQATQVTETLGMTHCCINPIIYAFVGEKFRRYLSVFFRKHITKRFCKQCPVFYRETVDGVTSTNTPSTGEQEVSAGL
Briefly: Human peripheral blood mononuclear cell binding (CCR2 binding), 125I-human MCP-1 tracer. More on the design: hPBMCs were isolated from human leukopak (Biological Specialty Inc.); endogenous in cells; host or cells: human peripheral blood mononuclear cells from leukopak (Biological Specialty Inc.). Particulars: hPBMCs, 125I-MCP-1; figure in parentheses in the cell not copied (count of determinations); read-out: CCR2 Binding IC50. How it is done:
See also: Yoshimura et al., J. Immunol. 1990, 145, 292. The human CCR2 binding assay was established with human peripheral blood mononuclear cells (hPBMCs) using ^125I-human MCP-1 as the tracer ligand. hPBMCs were isolated from human leukopak (Biological Specialty Inc.) using a standard protocol with Ficoll-Hypaque (Mediatech Cellgro). Isolated hPBMCs were washed and diluted to 1×10^7/ml in binding buffer (RPMI-1640, 0.1% BSA, 20 mM Hepes, pH 7.4). ^125I-MCP-1 (NEN/Perk Elmer) was diluted to 0.45 nM in binding buffer. The compound was diluted in binding buffer at 3-fold the final concentrations used in the binding assay. The binding assay was performed using a 96-well filter plate (Millipore). Total ^125I-MCP-1 binding was assessed as follows: to each reaction of a total volume of 150 μl were added 5×10^5 cells, 0.15 nM […], and compound such that the final concentration ranged from 0 to 100 nM. The plate was incubated at room temperature for 30 minutes followed by three washes with RPMI-1640, 0.1% BSA, 0.4 M NaCl, 20 mM Hepes, pH 7.4 using a vacuum manifold filtration (Millipore). After washing, the plate was air-dried for 60 minutes at room temperature. This was followed by adding 25 μl of Microscint 20 into each well. The plate was sealed and counted on the Trilux for 1 minute. Non-specific binding was determined in the presence of 300 nM cold MCP-1 (PeproTech Inc.). Specific 1-MCP-1 was calculated as the difference between total and non-specific binding. All conditions were tested in duplicate.

Data set [5] concerns the target T2, human CCR2. Briefly: CCR2 chemotaxis (MCP-1-induced, THP-1 cells). It counts as cell-based. Details: hPBMCs were isolated from human leukopak (Biological Specialty Inc.); endogenous in cells; host or cells: human peripheral blood mononuclear cells from leukopak (Biological Specialty Inc.). As to the method:
The human CCR2 chemotaxis assay was conducted with the human monocytic cell line, THP-1. THP-1 cells were first labeled with the fluorescent dye Calcein-AM in phenol red-free, BSA-free RPMI-1640 (pH 7.4) at 37° C. for 30 minutes with gentle mixing every 15 minutes. The labeled cells were then washed and re-suspended at 1×10^5/ml in chemotaxis buffer (phenol red-free RPMI-1640, 0.1% BSA, pH 7.4). The test compound was diluted in chemotaxis buffer such that the final assay concentration ranged from 0.01 nM to 1 μM. […] To perform the assay, an equal volume of test compound dilutions was mixed with an equal volume of labeled THP-1 cells (Mixture 1), and an equal volume of test compound dilutions was mixed with an equal volume of diluted MCP-1 ligand (Mixture 2). Both mixtures were incubated independently at 37° C. for 10 minutes followed by gentle mixing. MCP-1-induced chemotaxis was then measured in a chemotaxis plate (Becton Dickinson) by placing 50 μl of Mixture 1 in the top chamber and 225 μl of Mixture 2 in the bottom chamber. The plate was covered with a lid and incubated at 37° C. for 30 minutes. 30 minutes later, the plate was read on a Cytofluor. All conditions were tested in duplicate. […] The inhibition achieved by graded concentrations of test compound was calculated as a percentage of the compound-free MCP-1 control.

Data set [6] deals with T1, hERG. Briefly: hERG flux (Tl+ flux, FLIPR) in HEK293 cells. Conditions: HEK293 cells stably expressing hERG. It counts as cell-based. How it is done: HEK293 cells stably-expressing hERG channels were grown (37° C., 5% CO2) in Dulbecco's Modified Eagle's Media supplemented with 10% Sigma fetal bovine serum, non-essential amino acids, 2 mM L-glutamine and 500 μg/ml G418, at incubator.
A 2 mM stock of BTC-AM dye (Molecular Probes, Eugene, Oreg.) was prepared in 100% DMSO and then added 1:1 to 10% (w/v) pluronic acid in DMSO on the day of assay. The dye was then diluted in hERG external EP buffer (140 mM NaCl, 4.0 mM KCl, 1.8 mM CaCl2, 1.0 mM MgCl2, 10 mM HEPES, pH 7.3 and 10 mM glucose; all buffer components obtained from Sigma Chemical). […] Cells are incubated at 21° C. for 45 minutes.
These compounds were then serially-diluted at a 1:2 ratio in DMSO in columns 1-10 and 11-20 of a 384-well plate. Assay-ready plates were generated by stamping 2.5 μl from the DMSO serially diluted plate, which was prepared on the Velocity 11 BioCel. Aqueous plates were created by adding 48 μl of EP buffer and then were diluted 30-45 minutes before the assay was read on the FLIPR. […] Final DMSO concentration in the assay is 1%. Assay-ready aqueous plates were prepared and diluted on a Cybio liquid handler.
Data collection proceeded every second for 48 seconds, and then continued every three seconds for an additional 2 minutes.
The dynamic range of the assay was determined from blanks and totals wells. The totals wells (columns 21 and 22) define maximal hERG activation for the plate (no test compound present), and the blanks wells (columns 23 and 24) define 100% hERG inhibition. […] Raw data points in each sample well were first corrected for cell/signal variation, negative control (blanks) background, and normalized to the positive controls (totals) using the online FLIPR software. Test compound concentration response curves for the hERG Tl^+ flux data were then fit using Excel Fit (ID Business Solutions Limited, Surrey, UK) with a single-site logistic equation, Y=A+((B−A)/1+((C/X)^D))) where A=maximal inhibition. Data were analyzed by fitting maximum amplitudes of change in fluorescence for Tl^+ flux for a given condition of test compound.

Data set [7] can be described thus: Single-dose pharmacokinetics in rats. The class given is in vivo. Particulars: male, Sprague-Dawley, plasma, rat, dose per compound (mg/kg); for clearance: IV; for AUC: PO; for bioavailability: oral bioavailability. How it is done:
(1500-2000×g) to obtain plasma. […] Plasma samples, obtained by centrifugation at 4° C.

For data set [8], the target named is human cardiac sodium channel, SCN5A (Nav1.5) (Homo sapiens, UniProt Q14524). The experiment in a line: Sodium channel patch clamp (whole-cell, HEK-293). Conditions: HEK-293 cells expressing human cardiac sodium channel SCN5A, 30,000 nM, read-out: Na+ channel patch clamp (% inhibition). The class given is cell-based. As to the method:
The compound was tested at a protein-free aqueous buffer. For determining steady state inhibition, sodium currents were elicited every 5 seconds using the following voltage protocol: cells were held at a potential of −90 mV and stepped to −20 mV for 60 ms. Effects were calculated by measuring inhibition of peak current during the test pulse to −20 mV. Rate-dependence of inhibition was assessed by stimulation at frequencies of 1 Hz and 4 Hz.

Where only a bound is given, the exact number is not on record here.

T1 sequence (Q12809 whole entry): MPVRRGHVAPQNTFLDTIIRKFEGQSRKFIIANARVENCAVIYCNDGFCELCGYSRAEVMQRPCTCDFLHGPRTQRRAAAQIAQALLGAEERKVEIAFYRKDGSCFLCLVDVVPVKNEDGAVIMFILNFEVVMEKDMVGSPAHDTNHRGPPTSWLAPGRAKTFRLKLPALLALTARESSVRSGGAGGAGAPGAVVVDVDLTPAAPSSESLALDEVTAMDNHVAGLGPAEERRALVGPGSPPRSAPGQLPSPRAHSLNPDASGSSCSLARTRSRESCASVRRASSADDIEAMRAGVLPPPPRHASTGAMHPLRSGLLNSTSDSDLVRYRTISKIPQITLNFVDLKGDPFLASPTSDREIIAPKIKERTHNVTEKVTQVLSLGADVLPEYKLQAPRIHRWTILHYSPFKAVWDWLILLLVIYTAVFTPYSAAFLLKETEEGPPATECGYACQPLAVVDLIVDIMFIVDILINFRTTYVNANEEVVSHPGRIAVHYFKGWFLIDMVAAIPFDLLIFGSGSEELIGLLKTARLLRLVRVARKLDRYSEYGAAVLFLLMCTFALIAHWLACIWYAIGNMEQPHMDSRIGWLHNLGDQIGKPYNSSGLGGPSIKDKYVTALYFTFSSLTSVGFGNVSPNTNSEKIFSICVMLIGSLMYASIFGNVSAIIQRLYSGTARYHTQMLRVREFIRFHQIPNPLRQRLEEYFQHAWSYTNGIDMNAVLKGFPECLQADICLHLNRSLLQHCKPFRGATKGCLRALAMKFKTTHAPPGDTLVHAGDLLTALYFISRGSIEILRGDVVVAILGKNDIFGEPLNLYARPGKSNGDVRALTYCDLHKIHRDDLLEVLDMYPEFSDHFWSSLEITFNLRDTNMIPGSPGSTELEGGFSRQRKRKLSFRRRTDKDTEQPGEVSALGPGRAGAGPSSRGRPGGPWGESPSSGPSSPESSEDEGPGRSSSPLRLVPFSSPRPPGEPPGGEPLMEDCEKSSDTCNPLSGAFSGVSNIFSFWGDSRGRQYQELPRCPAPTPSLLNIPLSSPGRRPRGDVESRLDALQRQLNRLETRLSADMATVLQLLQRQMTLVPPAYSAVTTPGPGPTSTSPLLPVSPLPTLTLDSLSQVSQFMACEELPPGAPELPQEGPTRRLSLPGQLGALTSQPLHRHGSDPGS
Sequence of human cardiac sodium channel, SCN5A (Nav1.5) (Q14524 whole entry): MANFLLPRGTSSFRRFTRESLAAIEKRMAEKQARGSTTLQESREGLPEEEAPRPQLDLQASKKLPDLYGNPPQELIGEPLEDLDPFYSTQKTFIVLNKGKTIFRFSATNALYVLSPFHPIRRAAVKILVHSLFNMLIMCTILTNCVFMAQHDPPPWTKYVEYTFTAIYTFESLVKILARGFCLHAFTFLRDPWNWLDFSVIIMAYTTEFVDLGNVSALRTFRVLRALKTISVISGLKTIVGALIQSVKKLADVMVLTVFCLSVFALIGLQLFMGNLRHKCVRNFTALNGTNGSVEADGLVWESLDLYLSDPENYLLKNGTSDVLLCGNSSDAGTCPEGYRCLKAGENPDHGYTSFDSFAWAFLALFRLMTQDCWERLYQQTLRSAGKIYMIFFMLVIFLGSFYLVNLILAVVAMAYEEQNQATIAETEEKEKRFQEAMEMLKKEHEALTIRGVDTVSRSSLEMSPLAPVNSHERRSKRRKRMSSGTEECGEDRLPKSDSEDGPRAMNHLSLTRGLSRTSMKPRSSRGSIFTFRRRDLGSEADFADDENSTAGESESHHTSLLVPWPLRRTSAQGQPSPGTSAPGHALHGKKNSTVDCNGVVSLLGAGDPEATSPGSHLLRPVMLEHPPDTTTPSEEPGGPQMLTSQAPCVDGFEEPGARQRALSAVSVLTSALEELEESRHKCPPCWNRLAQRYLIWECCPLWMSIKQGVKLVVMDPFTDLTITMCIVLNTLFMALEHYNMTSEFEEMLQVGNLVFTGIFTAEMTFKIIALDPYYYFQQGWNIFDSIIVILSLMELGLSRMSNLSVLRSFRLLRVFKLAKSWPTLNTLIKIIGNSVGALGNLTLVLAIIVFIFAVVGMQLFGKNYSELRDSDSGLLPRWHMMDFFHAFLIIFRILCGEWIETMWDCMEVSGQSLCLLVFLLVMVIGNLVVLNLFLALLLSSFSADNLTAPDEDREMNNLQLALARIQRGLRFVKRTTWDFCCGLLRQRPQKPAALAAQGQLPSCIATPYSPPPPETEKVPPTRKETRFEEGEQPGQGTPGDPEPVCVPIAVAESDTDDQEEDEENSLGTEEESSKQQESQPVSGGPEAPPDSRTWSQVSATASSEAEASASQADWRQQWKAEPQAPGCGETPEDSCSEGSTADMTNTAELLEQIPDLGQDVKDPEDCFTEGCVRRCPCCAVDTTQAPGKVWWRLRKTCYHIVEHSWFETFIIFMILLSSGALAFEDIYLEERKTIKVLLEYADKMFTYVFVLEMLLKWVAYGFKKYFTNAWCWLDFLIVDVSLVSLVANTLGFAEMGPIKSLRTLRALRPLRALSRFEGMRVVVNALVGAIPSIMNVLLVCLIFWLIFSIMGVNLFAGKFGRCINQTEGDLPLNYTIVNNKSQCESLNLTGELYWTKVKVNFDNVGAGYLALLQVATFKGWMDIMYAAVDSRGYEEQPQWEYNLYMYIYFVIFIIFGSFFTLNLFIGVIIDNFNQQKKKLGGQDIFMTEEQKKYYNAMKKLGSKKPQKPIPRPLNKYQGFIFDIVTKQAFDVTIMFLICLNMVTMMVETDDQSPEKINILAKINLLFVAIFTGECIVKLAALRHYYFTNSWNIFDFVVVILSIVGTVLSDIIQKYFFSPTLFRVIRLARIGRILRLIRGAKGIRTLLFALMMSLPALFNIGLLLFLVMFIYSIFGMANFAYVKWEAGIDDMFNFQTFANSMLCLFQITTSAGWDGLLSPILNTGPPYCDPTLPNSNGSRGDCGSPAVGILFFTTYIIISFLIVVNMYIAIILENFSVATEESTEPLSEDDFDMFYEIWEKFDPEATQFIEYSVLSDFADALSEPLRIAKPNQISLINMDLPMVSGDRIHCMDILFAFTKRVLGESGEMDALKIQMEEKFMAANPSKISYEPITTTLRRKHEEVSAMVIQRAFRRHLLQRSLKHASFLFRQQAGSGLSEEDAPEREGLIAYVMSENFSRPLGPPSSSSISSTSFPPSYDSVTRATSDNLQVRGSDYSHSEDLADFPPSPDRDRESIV

Consider `CO[C@@H]1CC[C@H](N2CC[C@H](Nc3ncnc4ccc(C(F)(F)F)cc34)C2=O)[C@H](CNC(C)=O)C1` [Example 15, N-(((1S,2S,5R)-5-methoxy-2-((3S)-2-oxo-3-((6-(trifluoromethyl)-4-quinazolinyl)amino)-1-pyrrolidinyl)cyclohexyl)methyl)acetamide], for which, in data set [1], 30000 nM produced 29% inhibition. The molecule further showed an inhibition at 100000 nM in data set [1] (pH 7.4, 100,000 nM) of 47%. The clearance is 28 mL/min/kg in data set [2] and 23 mL/min/kg in data set [7]. In addition, the values for the AUC in data set [2] and in data set [7] were 0.333 µM·h and 16.2 µM·h, respectively. The figures for the bioavailability in data set [2] and in data set [7] were 19% and 93%, respectively. The molecule further gave a Papp at 4 h, 100 µM in data set [3] of 18.6 ×10⁻⁶ cm/s. Besides, the IC50 in data set [4] is 3.34 ± 0.71 nM; in data set [5] it was 0.92 ± 0.67 nM; in data set [6], more than 80 µM.
In data set [1], `CN[C@@H]1CC[C@H](N2CC[C@H](Nc3ncnc4ccc(C(F)(F)F)cc34)C2=O)[C@H](NC(C)=O)C1` [Example 3, N-((1R,2S,5R)-5-(methylamino)-2-((3S)-2-oxo-3-((6-(trifluoromethyl)-4-quinazolinyl)amino)-1-pyrrolidinyl)cyclohexyl)acetamide] had an inhibition at 10000 nM of 6% and an inhibition at 30000 nM of 24%. In data set [2], this molecule had a clearance of 15 mL/min/kg, an AUC of 2.05 µM·h and a bioavailability of 91%. Further, in data set [4], the IC50 is 4.74 ± 0.58 nM. Besides, the IC50 in data set [6] is more than 80 µM. Besides, the inhibition at 30000 nM in data set [8] was found to be 3%.
On to `CC(C)(C)N[C@@H]1CC[C@H](N2CC[C@H](NC(=O)c3ccnc(C(C)(C)C)n3)C2=O)[C@H](NS(C)(=O)=O)C1` [Example 11, 2-tert-butyl-N—((S)-1-((1S,2R,4R)-4-(tert-butylamino)-2-(methylsulfonamido)cyclohexyl)-2-oxopyrrolidin-3-yl)pyrimidine-4-carboxamide], for which, in data set [1], the inhibition at 30000 nM stood at 15%. The molecule also yielded a Papp at 4 h, 100 µM in data set [3] of 35 ×10⁻⁶ cm/s. The IC50 in data set [4] is 1.91 ± 0.52 nM; in data set [5], 0.92 nM; in data set [6], more than 80 µM. This molecule showed a clearance in data set [7] of 56 mL/min/kg. This molecule also displayed an AUC in data set [7] of 3.04 µM·h. For the same molecule, in data set [7], the bioavailability worked out at 52%.
For the molecule `CC(C)(C)N[C@@H]1CC[C@H](N2CC[C@H](Nc3ncnc4cnc(C(C)(C)C)nc34)C2=O)[C@H](NS(C)(=O)=O)C1` [Example 13, N-((1R,2S,5R)-5-(tert-butylamino)-2-((3S)-3-((6-tert-butylpyrimido[5,4-d]pyrimidin-4-yl)amino)-2-oxo-1-pyrrolidinyl)cyclohexyl)methanesulfonamide], 30000 nM produced 10% inhibition in data set [1]. For the same molecule, the AUC in data set [2] was determined as 0.263 µM·h; in data set [7] it was 10.5 µM·h. Also, the Papp at 4 h, 100 µM in data set [3] was found to be 54.1 ± 6.3 ×10⁻⁶ cm/s. Further, the figures for the 50% inhibitory concentration (IC50) in data set [4], in data set [5] and in data set [6] were 4.02 ± 1.31 nM, 0.49 nM and more than 80 µM, respectively. The molecule also showed a clearance in data set [7] of 26 mL/min/kg. This molecule showed a bioavailability in data set [7] of 88%.
For the molecule `CC(=O)N[C@@H]1C[C@H](N(C)C)CC[C@@H]1N1CC[C@H](Nc2ncnc3ccc(C(F)(F)F)cc23)C1=O` [Example 8, N-((1R,2S,5R)-5-(dimethylamino)-2-((3S)-2-oxo-3-((6-(trifluoromethyl)-4-quinazolinyl)amino)-1-pyrrolidinyl)cyclohexyl)acetamide], the inhibition at 10000 nM in data set [1] stood at 18%. In addition, the inhibition at 30000 nM was 37% in data set [1] and 11% in data set [8]. Further, the AUC in data set [2] amounted to 0.558 µM·h; in data set [7], 7.28 µM·h. Also, the IC50 in data set [4] was 3.58 ± 0.78 nM; in data set [5], 4.09 ± 1.21 nM; in data set [6], more than 80 µM.
In data set [1], `CCC(=O)N[C@@H]1C[C@H](NC(C)(C)C)CC[C@@H]1N1CC[C@H](NC(=O)c2ccnc(C(C)(C)C)n2)C1=O` [Example 12, 2-tert-butyl-N-((3S)-1-((1S,2R,4R)-4-(tert-butylamino)-2-(propionylamino)cyclohexyl)-2-oxo-3-pyrrolidinyl)-4-pyrimidinecarboxamide] displayed an inhibition at 10000 nM of 6% and an inhibition at 30000 nM of 7%. In addition, the AUC in data set [2] stood at 0.413 µM·h. The molecule further showed a Papp at 4 h, 100 µM in data set [3] of 23.9 ×10⁻⁶ cm/s. Also, the IC50 in data set [4] came to 4.49 ± 1.35 nM. The same molecule registered an IC50 in data set [6] of more than 80 µM. In data set [7], this molecule showed a clearance of 59 mL/min/kg, an AUC of 5.23 µM·h and a bioavailability of 91%.
